Test results taken from patent EP2150620B1, “Method for preparing C-6 phosphorylated D-aldohexoses and C-6 phosphorylated D-aldohexose derivatives, and new C-6 phosphorylated D-aldohexose derivatives” (Libragen, priority 2007, dated 2008).
pKi: −log10 of the molar value. Read-outs that look alike come from different tables or passages of the source.

Tests used:
[1] = test system: polyphosphate-glucose phosphotransferase activity; experiment: C-6 phosphorylation with enzymatic extracts of other Mycobacterium strains (Example 3); conditions: all the enzymatic preparations (five strains); acceptor 150 mM; 24 hours at 30°C
Source text: The bacterial strains used are the followings: • Mycobacterium phlei ATCC 11758, • Mycobacterium smegmatis DSMZ 43465 (equivalent to ATCC 607), • Mycobacterium smegmatis ATCC 607 (equivalent to DSMZ 43465) • Mycobacterium smegmatis ATCC 700084 (or mc^2 155) • Mycobacterium sp DSMZ 2966 (equivalent to NRRL B-3683)

[2] = test system: polyphosphate-glucose phosphotransferase activity; experiment: C-6 phosphorylation of acceptors with polyphosphate by an enzymatic extract, detected by thin layer chromatography (Examples 1 and 2); conditions: Example 2; same synthesis and detection conditions as Example 1
[3] = test system: polyphosphate-glucose phosphotransferase; conditions: cited from earlier work; for activity as phosphoryl acceptor: Arthrobacter sp. strain KM, irrespective of the phosphoryl donor, polyphosphate or ATP
[4] = test system: polyphosphate-glucose phosphotransferase; conditions: acceptor glucose; cited from earlier work
[5] = test system: polyphosphate-glucose phosphotransferase; conditions: cited from earlier work; for Km: pH 7.5, 30°C; for inhibition of the enzyme: donor ATP
[6] = biological target: polyphosphate-glucose phosphotransferase (Mycobacterium tuberculosis, UniProt P9WIN1); conditions: cited from earlier work; for pKi: read-out: Ki (ATP inhibits at high concentration)
[7] = test system: polyphosphate-glucose phosphotransferase; conditions: acceptor D-glucose; label is the phosphate donor; Propionibacterium arabinosum enzyme; cited from earlier work
[8] = test system: polyphosphate-glucose phosphotransferase; conditions: donor ATP, acceptor D-glucose; cited from earlier work
rat brain hexokinase = biological target: T1, rat brain hexokinase (Rattus norvegicus, UniProt P05708); conditions: relative to glucose 6-phosphate; cited from earlier work
T1 sequence (P05708 1-918): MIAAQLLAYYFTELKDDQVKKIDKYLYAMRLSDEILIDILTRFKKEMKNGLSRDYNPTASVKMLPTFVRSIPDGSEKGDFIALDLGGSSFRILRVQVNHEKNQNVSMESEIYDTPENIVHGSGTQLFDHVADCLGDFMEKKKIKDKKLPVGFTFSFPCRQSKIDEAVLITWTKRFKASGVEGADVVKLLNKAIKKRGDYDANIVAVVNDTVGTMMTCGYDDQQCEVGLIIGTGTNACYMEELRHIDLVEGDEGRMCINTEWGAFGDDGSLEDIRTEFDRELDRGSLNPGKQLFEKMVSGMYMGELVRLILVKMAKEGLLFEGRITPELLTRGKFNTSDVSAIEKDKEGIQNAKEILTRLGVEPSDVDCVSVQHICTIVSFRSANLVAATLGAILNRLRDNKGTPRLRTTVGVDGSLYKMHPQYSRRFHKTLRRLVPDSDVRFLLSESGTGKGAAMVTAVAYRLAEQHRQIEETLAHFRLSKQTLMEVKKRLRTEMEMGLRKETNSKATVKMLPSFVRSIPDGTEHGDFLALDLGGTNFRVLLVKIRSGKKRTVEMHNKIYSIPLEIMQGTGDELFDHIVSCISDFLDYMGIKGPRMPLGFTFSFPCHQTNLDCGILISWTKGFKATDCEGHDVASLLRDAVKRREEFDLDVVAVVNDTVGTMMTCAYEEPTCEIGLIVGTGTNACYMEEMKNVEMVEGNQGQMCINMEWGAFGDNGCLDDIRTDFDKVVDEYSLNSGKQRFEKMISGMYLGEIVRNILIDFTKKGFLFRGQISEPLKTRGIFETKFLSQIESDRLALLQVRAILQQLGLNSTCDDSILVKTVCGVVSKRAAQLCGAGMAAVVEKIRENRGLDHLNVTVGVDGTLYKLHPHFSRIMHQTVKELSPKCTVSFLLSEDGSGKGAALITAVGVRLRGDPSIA

[9] = donor polyphosphate, acceptor D-glucose

polyphosphate-glucose phosphotransferase (Mycobacterium tuberculosis, UniProt P9WIN1), sequence (P9WIN1 whole entry): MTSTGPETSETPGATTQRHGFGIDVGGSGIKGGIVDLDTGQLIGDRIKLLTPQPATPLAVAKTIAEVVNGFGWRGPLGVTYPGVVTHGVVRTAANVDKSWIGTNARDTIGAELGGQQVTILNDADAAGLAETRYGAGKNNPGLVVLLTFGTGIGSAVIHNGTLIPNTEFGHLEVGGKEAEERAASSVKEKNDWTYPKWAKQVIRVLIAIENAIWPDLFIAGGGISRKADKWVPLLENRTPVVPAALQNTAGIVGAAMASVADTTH

Which “synthesis of the phosphorylated product by the enzymatic preparations” value (from here on “synthesis of the phosphorylated product”) [1] does the source give for `O=P(O)(O)OCC1OC(OP(=O)(O)O)C(O)C(O)C1O` [D-glucose-1,6-bisphosphate] here?
The value was “could not be synthesized”.

What does the source list for `O=C(CO)[C@@H](O)[C@H](O)[C@H](O)CO` [D-fructose]?
phosphorylation of the acceptor (new substance in the 24 hours-incubation medium) [2]: not phosphorylated; activity as phosphoryl acceptor [3]: inert

Which “phosphorylation of the acceptor (new substance in the 24 hours-incubation medium)” value (“phosphorylation of the acceptor” below) [2] does the source give for `O=C[C@H](O)[C@@H](O)[C@@H](O)[C@H](O)CO` [D-galactose] here?
The value was “not phosphorylated”.

And the “activity as phosphoryl acceptor” value [3]?
Its value is “inert”.

What does the source list for `Nc1ncnc2c1ncn2[C@@H]1O[C@H](COP(=O)(O)OP(=O)(O)OP(=O)(O)O)[C@@H](O)[C@H]1O` [ATP, adenosine triphosphate]?
activity with phosphate donor [4]: No activity with ATP.; Turnover ([5]; acceptor D-glucose, label is the phosphate donor, Propionibacterium shermanii enzyme): 25 s⁻¹; Km ([5]; label is the phosphate donor): 1500 µM; Turnover ([6]; acceptor D-glucose, label is the phosphate donor): 116 s⁻¹; Km ([6]; pH 7.5, donor ATP): 880 µM; pKi ([6]; pH 7.5, donor ATP): 2.18; Km ([6]; pH 8.6, donor ATP): 1400 µM; pKi ([6]; pH 8.6, donor ATP): 2.13; Turnover [7]: Dimer: 2 x 30000 Turnover: 63 s^-1

With `O=C[C@@H](O)[C@H](O)[C@H](O)[C@H](O)CO` [D-altrose] as the molecule, how does the “phosphorylation of the acceptor” value [2] read?
The value was “not phosphorylated”.

With `Nc1ccn([C@@H]2O[C@H](COP(=O)(O)OP(=O)(O)OP(=O)(O)O)[C@@H](O)[C@H]2O)c(=O)n1` [CTP] as the molecule, how does the Km ([5]; label is the phosphate donor) read?
Its Km is 5900 µM.

Which “inhibition of the enzyme” value ([5]; acceptor D-glucose) does the source give for `O=P(O)(O)OC[C@H]1OC(O)[C@H](O)[C@@H](O)[C@@H]1O` (stereo partly drawn) [Glc6P] here?
Its value is “inhibit”.

What about the “inhibition of the enzyme” value [6, 9] of the same molecule?
Its value is “inhibit”.

With `O=CC[C@@H](O)[C@H](O)[C@H](O)COP(=O)(O)O` [2-deoxy-D-glucose-6-phosphate] as the molecule, how does the “synthesis of the phosphorylated product” value [1] read?
The value was “able to catalyze the synthesis”.

Which “activity as phosphoryl acceptor” value [3] does the source give for `O=CC[C@@H](O)[C@H](O)[C@H](O)CO` [2-deoxy-D-glucose] here?
Its value is “inert”.

For `[Cl-].[Na+]` [NaCl], which “inhibits above (concentration)” value [8] is on record?
Its value is “NaCl above 100 mM inhibits. Mol. weight: 59000”.

Which “inhibition of the enzyme” value ([6]; donor ATP, acceptor D-glucose) does the source give for `O=C(CO)[C@@H](O)[C@H](O)[C@H](O)COP(=O)(O)O` [Fru6P] here?
Its value is “inhibit”.

And the “inhibition of the enzyme” value [6, 9]?
Its value is “inhibit”.

Which “synthesis of the phosphorylated product” value [1] does the source give for `O=P(O)(O)OC[C@H]1O[C@@H](S)[C@H](O)[C@@H](O)[C@@H]1O` [D-glucothiose-6-phosphate] here?
The value was “able to catalyze the synthesis”.

With `O=P(O)(O)OP(=O)(O)OP(=O)(O)O` [TriPoly(P)] as the molecule, how does the “inhibition of the enzyme” value ([5]; acceptor D-glucose) read?
Its value is “inhibits”.

Which “inhibition of the enzyme” value ([5]; acceptor D-glucose) does the source give for `Nc1ncnc2c1ncn2[C@@H]1O[C@H](COP(=O)(O)OP(=O)(O)O)[C@@H](O)[C@H]1O` [ADP] here?
The value was “inhibit”.

And the “inhibition of the enzyme” value ([6]; donor ATP, acceptor D-glucose)?
Its value is “inhibit”.

For `O=C[C@H](O)[C@@H](O)[C@H](O)CO` [D-xylose], which “inhibition of the enzyme” value ([5]; acceptor D-glucose) is on record?
The value was “inhibits”.

And the “inhibition of the enzyme” value ([6]; donor ATP, acceptor D-glucose)?
Its value is “inhibit”.

For `Nc1ncnc2c1ncn2[C@@H]1O[C@H](COP(=O)(O)O)[C@@H](O)[C@H]1O` [AMP], which “inhibition of the enzyme” value ([6]; donor ATP, acceptor D-glucose) is on record?
The value was “inhibit”.

With `O=C[C@H](O)[C@H](O)[C@H](O)CO` [D-ribose] as the molecule, how does the “phosphorylation of the acceptor” value [2] read?
The value was “not phosphorylated”.

For `O=C[C@H](O)[C@@H](O)[C@H](O)[C@H](S)COP(=O)(O)O` [5-thioglucose 6-phosphate], which “inhibition constant Ki of rat brain hexokinase, lower than that seen with glucose 6-phosphate” value (rat brain hexokinase) is on record?
Its value is 10 fold.

Which “phosphorylation of the acceptor” value [2] does the source give for `O=P(O)(O)O[C@H]1O[C@H](CO)[C@@H](O)[C@H](O)[C@H]1O` [α-D-glucose-1-phosphate] here?
The value was “not phosphorylated”.

Which results are given for `O=C[C@@H](O)[C@@H](O)[C@H](O)[C@H](O)CO` [D-mannose]?
activity as % of the activity with glucose ([3]; donor ATP): About 30% of the activity with glucose.; activity as % of the activity with glucose ([3]; donor polyphosphate): ~40%; Km ([3]; pH 7.0, 30°C, donor polyphosphate): 150 µM
